{"source": "patent US20060141022A1", "about": "“Soft capsule preparation” (priority 2002, published 2006)", "key": {"hepatoma": {"tested_on": "hepatoma", "details": "one-year oral administration, patients after therapeutic treatment of hepatoma; cited from earlier work"}, "[1]": {"experiment": "Stability test of NIK-333 in sealed bottle (peroxide value)", "format": "physicochemical", "details": "25° C., sealed bottle in aluminium bag", "method": "NIK-333 was filled in a sealed bottle and the bottle was put into an aluminium bag. This sample was stored at 25° C., and after 0, 1, and 3 months, the peroxide values were measured."}}, "data": [{"smiles": "CC(C)=CCC/C(C)=C/CC/C(C)=C/C=C/C(C)=C/C(=O)O", "note": "[NIK-333, (2E,4E,6E,10E )-3,7,11,15-Tetramethyl-2,4,6,10,14-hexadecapentaenoic acid]", "values": [{"measurement": "recurrence of hepatoma", "setting": "hepatoma", "result": "suppress recurrence of hepatoma"}, {"measurement": "safety", "setting": "hepatoma", "result": "high safety"}, {"measurement": "survival rate of the patients", "setting": "hepatoma", "result": "increased survival rate of the patients"}, {"measurement": "Peroxide value", "setting": "[1]; storage period 0 month", "result": 0.4, "unit": "meq/kg"}, {"measurement": "Peroxide value", "setting": "[1]; storage period 1 month", "result": 6.2, "unit": "meq/kg"}, {"measurement": "Peroxide value", "setting": "[1]; storage period 3 months", "result": 14.4, "unit": "meq/kg"}]}]}
